# Measurements from article PMC6675120, “Potent and selective inhibitors for M32 metallocarboxypeptidases identified from high-throughput screening of anti-kinetoplastid chemical boxes” (PLoS Neglected Tropical Diseases, 2019).
# Values joined by “and” are separate entries in the source; they are usually repeats but may differ in a detail not shown here. Equal entries are not always repeated. Where two headings read alike, the source gives them in different places.
# What was measured:
# TbMCP-1 = TbMCP-1 (Trypanosoma brucei, UniProt Q386R0); test: Continuous fluorogenic (FRET) TbMCP-1 assay with Abz-RFFK(Dnp)-OH, primary and secondary screening; assay type: biochemical; conditions: for TbMCP-1 Hill Slope: four-parameter Hill fit of dose-response curve; for TbMCP-1 2º/1º ratio: secondary (31,5 µM) / primary (25 µM) inhibition; for TbMCP-1 Secondary screening Inhibition (%) / inhibition: single inhibitor concentration 31,5 µM; for inhibition at 25 µM: read-out: TbMCP-1 Primary screening Inhibition (%); for EDTA control (RFU/sec) Mean: EDTA final concentration 31,25 mM, inhibition control
# Method: (§1) TcMCP-1 (MEROPS ID: M32.003) and TbMCP-1 were expressed as GST fusion proteins in E. coli BL21 (DE3) Codon Plus and purified as previously described.
# (§2) TbMCP-1 and TcMCP-1 activities were assayed fluorometrically with Abz-RFFK(Dnp)-OH and Abz-LKFK(Dnp)-OH substrates, respectively, in 100 mM MOPS pH 7,2 containing 0,01% Triton X-100. Assays were performed in solid black 384-well plates (final reaction volume ~80 μL) and the hydrolysis of the K(Dnp)-OH group was monitored continuously at 30 °C with a Beckman Coulter DTX 880 Multimode Reader (Radnor, Pennsylvania, USA) using standard 320 nm excitation and 420 nm emission filter set.
# (§3) In all cases, EDTA (final concentration 31,25 mM) was used as positive inhibition control.
# (§4) Then, 40 μL of 100 mM MOPS, 0,01% Triton X-100 pH 7,2 containing TbMCP-1 (2,50 nM) or TcMCP-1 (0,34 nM) were added to each well, plates were homogenized (30 seg, orbital, medium intensity) and each well subjected to a single autofluorescence read (ex/em = 320/420 nm). Plates were incubated in darkness for 15 min at 30 °C and then 40 μL of Abz-RFFK(Dnp)-OH (4 μM) or Abz-LKFK(Dnp)-OH (0,8 μM) in assay buffer were added to each well to start the reaction. After homogenization (30 seg, orbital, medium intensity), the fluorescence of the Abz group (ortho-aminobenzoic acid) (ex/em = 320/420 nm) was acquired kinetically for each well (8 read cycles, one cycle every 300 seconds). Considering our previous experiences, the auto-fluorescent cut-off was arbitrarily set at 2x10^5 RFU to discard highly interfering compounds. All compounds were assayed in singlet (without replicates) due to the limited availability of stocks.
# (§5) Raw screening measurements were used to determine the slope (dF/dt) of progression curves by linear regression for control and non-interfering compound wells. In the case of control-dependent hit selection criteria, percent inhibition percentage (%Inh) was calculated for each compound according to the following equation: Inh=100∙[1−(dF/dt^WELL−μ^C−)/(μ^C+−μ^C−)] (1) where dF/dt^WELL represents the slope of each compound well and μ^C+ and μ^C− the average of MCP (no-inhibition) and substrate (no-enzyme) controls, respectively.
# (§6) To avoid any positional and/or association bias, we randomly defined the row position for each compound. One μL of compounds stock (10 mM in DMSO) and EDTA (31,25 mM) were added to the first well of column 1, followed by addition of 40 μL of 100 mM MOPS, 0,01% Triton X-100 pH 7,2 buffer. After addition of 20 μL of the same buffer to subsequent wells of the plate, 22 serial 2-fold dilutions were made horizontally. The last two positions of every row were used, alternatively, for C^+ and C^− controls to reduce any positional and/or association bias. Then, 20 μL of activity buffer containing TbMCP-1 or TcMCP-1 were added to each well, except for those corresponding to C^−; completed with 20 μL of activity buffer. After homogenization, 15 minutes of incubation at 30°C and autofluorescence measurement, the substrate (in activity buffer) was added to the previous mix. Data collection and processing were performed exactly as described above. Percentage of M32 MCPs residual activity was calculated for each condition according to the following equation: %Res.Act^MCP=100∙[(dF/dt^WELL−μ^C−)/(μ^C+−μ^C−)] (2) where dF/dt^WELL represents the slope of each compound well and μ^C+ and μ^C− the average of MCP (no-inhibition) and substrate (no-enzyme) controls, respectively.
# TcMCP-1 = TcMCP-1 (Trypanosoma cruzi, UniProt Q6ZXC0); test: Continuous fluorogenic (FRET) TcMCP-1 assay with Abz-LKFK(Dnp)-OH, primary and secondary screening; assay type: biochemical; set-up: inhibition: dose or concentration left out as unconfirmed; conditions: for TcMCP-1 Hill Slope: four-parameter Hill fit of dose-response curve; for TcMCP-1 2º/1º ratio: secondary (31,5 µM) / primary (25 µM) inhibition; for TcMCP-1 Primary screening Inhibition (%) / inhibition at 25 µM: single inhibitor concentration 25 µM; for TcMCP-1 Secondary screening Inhibition (%): single inhibitor concentration 31,5 µM; for EDTA control (RFU/sec) Mean: EDTA final concentration 31,25 mM, inhibition control; for inhibition: read-out: TcMCP-1 Secondary screening Inhibition (%)
# Method: as §1, §2, §3, §4, §5
# as §6, with “Compounds selected from primary screening were re-tested in a dose-response manner (final concentration ranging from […] to 62,5 μM) using identical assay conditions. To” for “To”
# [1] = single inhibitor concentration 25 µM
# [2] = secondary screening, two-fold dilutions 7,5 pM to 62,5 μM, KM/[S] ~ 1, no replicates
# Chain of TcMCP-1 (Q6ZXC0 entry or part of it): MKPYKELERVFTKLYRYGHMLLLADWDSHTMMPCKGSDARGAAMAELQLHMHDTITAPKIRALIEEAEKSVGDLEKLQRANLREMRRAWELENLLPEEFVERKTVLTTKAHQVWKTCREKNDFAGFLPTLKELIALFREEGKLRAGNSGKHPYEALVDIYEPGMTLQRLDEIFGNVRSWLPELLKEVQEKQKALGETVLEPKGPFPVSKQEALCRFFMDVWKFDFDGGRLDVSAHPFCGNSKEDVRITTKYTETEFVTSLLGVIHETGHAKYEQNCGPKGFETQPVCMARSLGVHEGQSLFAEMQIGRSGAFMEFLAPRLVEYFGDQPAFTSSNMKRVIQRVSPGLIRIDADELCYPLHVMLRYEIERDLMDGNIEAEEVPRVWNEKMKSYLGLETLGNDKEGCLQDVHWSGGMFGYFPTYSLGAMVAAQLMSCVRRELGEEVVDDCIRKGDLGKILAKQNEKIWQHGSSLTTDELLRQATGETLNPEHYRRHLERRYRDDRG
# Chain of TbMCP-1 (Q386R0 entry or part of it): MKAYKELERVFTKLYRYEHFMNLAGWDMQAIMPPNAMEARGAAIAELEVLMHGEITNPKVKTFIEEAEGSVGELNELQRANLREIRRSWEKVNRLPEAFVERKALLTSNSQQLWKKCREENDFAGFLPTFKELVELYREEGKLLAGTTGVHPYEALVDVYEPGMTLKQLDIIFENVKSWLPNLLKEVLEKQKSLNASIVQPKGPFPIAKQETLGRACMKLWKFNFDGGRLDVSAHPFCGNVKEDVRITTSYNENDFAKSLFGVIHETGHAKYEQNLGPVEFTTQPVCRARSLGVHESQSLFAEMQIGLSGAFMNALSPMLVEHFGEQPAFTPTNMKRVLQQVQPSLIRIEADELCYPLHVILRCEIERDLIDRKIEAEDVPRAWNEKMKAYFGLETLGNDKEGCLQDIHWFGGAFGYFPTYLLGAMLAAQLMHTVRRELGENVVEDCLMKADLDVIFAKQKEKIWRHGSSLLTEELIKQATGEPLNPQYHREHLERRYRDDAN
SMILES,IC50 (TbMCP-1),TbMCP-1 Hill Slope (TbMCP-1),TbMCP-1 2º/1º ratio (TbMCP-1),TbMCP-1 Primary screening Inhibition (%) (TbMCP-1; [1]),TbMCP-1 Secondary screening Inhibition (%) (TbMCP-1),IC50 (TcMCP-1),TcMCP-1 Hill Slope (TcMCP-1),TcMCP-1 2º/1º ratio (TcMCP-1),TcMCP-1 Primary screening Inhibition (%) (TcMCP-1),TcMCP-1 Secondary screening Inhibition (%) (TcMCP-1),inhibition at 25 µM (TbMCP-1; [1]),inhibition (TbMCP-1),IC50 (TcMCP-1; [2]),other results
COc1ccc2ncc(Cl)c(CCN3CC[C@@H](NCc4cc5c(cn4)OCS5)[C@H](O)C3)c2n1 [TCMDC-143513],28.3 µM,"-0,8371","0,76","56,08%","42,64%",13.5 µM,"-0,9734","1,07","65,65%","70,48%",,,,
C[C@@H](Oc1cc(-n2cnc3ccc(O[C@H]4CCNC4)cc32)sc1C(N)=O)c1ccccc1Cl [TCMDC-143515],31.7 µM,"-0,8447","1,26","40,42%","50,90%",21.8 µM,"-1,149","1,02","54,26%","55,47%",,,,
O=C(c1cccc(Cl)c1Cl)N1CCn2c1nc(-c1ccncc1)cc2=O [TCMDC-143409],,"-1,2409","1,13",,,,,,,,68.9%,78%,,IC50 (TbMCP-1; [2]): 10.4 µM; inhibition on TcMCP-1 (TcMCP-1): < 30%
"O=C(O)CN(CCN(CC(=O)O)CC(=O)O)CC(=O)O [EDTA, reference compound]",,,,,,,,,,,,,,"EDTA control (RFU/sec) Mean (TbMCP-1; Plate 1): 0,13 RFU/sec; EDTA control (RFU/sec) Mean (TbMCP-1; Plate 2): 0,39 RFU/sec; EDTA control (RFU/sec) Mean (TcMCP-1; Plate 1): 1,28 RFU/sec; EDTA control (RFU/sec) Mean (TcMCP-1; Plate 2): 2,32 RFU/sec"
CCOC(=O)c1cn[nH]c1S(=O)(=O)N1CCC1c1ccccc1 (centres unmarked) [TCMDC-143456],14.7 µM,"-1,247","1,04",,,,"-0,9597","1,10",,,66.2%,69%,≤ 10 µM,inhibition (TcMCP-1): 97.7%; inhibition at 25 µM (TcMCP-1): 89.1%
Fc1ccccc1N1CC2CCN(c3cccnc3)CC2C1 (centres unmarked) [TCMDC-143422],,"-1,206","0,99",,,1.52 µM,"-1,038","1,19",,,81.1%,80.2%,≤ 10 µM,IC50 (TbMCP-1; [2]): 10.5 µM; inhibition (TcMCP-1): 93.9%; inhibition at 25 µM (TcMCP-1): 78.8%
COc1cc(Nc2nccc(Nc3onc(C)c3C)n2)cc(S(=O)(=O)C2CCOCC2)c1 [TCMDC-143462],,,"0,13","47,90%","6,29%",15.5 µM,"-0,9436","1,40","43,06%","60,29%",,,,
CN(CC1CCCO1)S(=O)(=O)c1ccc(C(=O)Nc2nc(-c3ccccn3)cs2)cc1 (centres unmarked) [TCMDC-143551],34.5 µM,"-1,562","0,99","42,28%","41,97%",13.8 µM,"-1,834","1,14","65,04%","74,11%",,,,
O=c1[nH]c(C=Cc2cccc(OCCOc3ccccc3)c2)nc(O)c1[N+](=O)[O-] [TCMDC-143209],28.3 µM,"-1,2405","0,86",,,4180 µM,"-1,019","1,09",,,50%,42.9%,≤ 10 µM,inhibition (TcMCP-1): 92.5%; inhibition at 25 µM (TcMCP-1): 85%
CCn1c(-c2nonc2N)nc2c(C(C)O)ncc(OC(CN)c3ccccc3)c21 (centres unmarked) [TCMDC-143323],,"-0,894","1,00",,,,,,,,87.2%,87%,,inhibition on TcMCP-1 (TcMCP-1): < 30%
Cc1cc(C)c(C#N)c(SCC(=O)c2ccc3c(c2)OCO3)n1 [TCMDC-143625],,,"0,35","49,55%","17,11%",,,"0,45","43,83%","19,89%",,,,
Cl.NS(=O)(=O)c1ccc(Nc2ncc3cccc(OC4CCNCC4)c3n2)cc1 [TCMDC-143382],22.6 µM,"-0,7258","0,99","57,82%","57,14%",20.6 µM,"-0,7277","1,18","53,63%","63,12%",,,,
CS(=O)(=O)c1cccc(CNC(=O)c2cncc(N3CCN(c4ccc(F)cc4)CC3)c2)c1 [TCMDC-143385],,,,,,,"-0,9614","1,88",,,,,≤ 10 µM and ~10 µM,inhibition at 25 µM (TbMCP-1): < 40%; inhibition (TcMCP-1): 80.8%; inhibition at 25 µM (TcMCP-1): 42.9%
O=C(Nc1nc2cc(Cl)ccc2o1)c1cccc(Cl)c1 [TCMDC-143172],,,"-0,04",,"-1,57%",11.2 µM,"-2,825","1,30","65,01%","84,56%",,,~10 µM,"TbMCP-1 Primary screening Inhibition (%) (TbMCP-1; single inhibitor concentration 25 µM, 25 µM): 42,44%"
